This experiment addresses CDK12 (Homo sapiens, UniProt Q9NYV4). Kind of experiment: Biochemical assay for CDK12 (LANCE TR-FRET, IC50 determination). As to conditions: for IC50: CDK12, IC50 class, read-out: IC50 μM (in range); for inhibition at 10 µM: compound at 10 μM, read-out: CDK12 % Inhibition @ 10 μM. Here is the method:
Biochemical Assay for CDK12 (IC50 Determination):
The inhibitory activity of the test compounds was assessed by the LANCE TR-FRET assay, which detects the ATP-dependent phosphorylation of an ULight-4E-BP1 (Thr37/Thr46) substrate peptide (100 nM) by CDK12 (30 nM). Briefly, the enzyme reaction was run in reaction buffer (25 mM HEPES (pH 7.5), 10 mM MgCl2, […], 0.01% Triton x, 1 mM DTT). The assay was performed in 384-well plate format. The end concentration of the ATP substrate was […], and that of the ULight-4E-BP1 (Thr37/Thr46) substrate peptide was 100 nM, and of CDK12 was 30 nM. Pre-incubation of the compound and enzyme was performed for 60 min at room temperature. After 60 min incubation at room temperature, the reaction was terminated by the addition of 40 mM EDTA and 0.5 nM Eu-labeled anti-phospho-eIF4E-binding protein (Thr37/46) antibody in LANCE detection buffer. Time-resolved fluorescence (excitation, 320 nm; emission donor, 615 nm; emission acceptor, 665 nm) was monitored by using 2030 multilabel reader Victor5 (PerkinElmer). The Fluorescence emission of the samples were measured and the ratio was plotted against the compound concentration to generate the dose response curve. The IC50 values were derived by fitting a sigmoidal dose-response curve to a plot of assay readout over inhibitor concentration. All fits were computed with the program Prism 5.03 (Graph Pad Software, San Diego, CA). The % inhibition values at […] were calculated with respect to enzyme activity.

CDK12, sequence (Q9NYV4 whole entry): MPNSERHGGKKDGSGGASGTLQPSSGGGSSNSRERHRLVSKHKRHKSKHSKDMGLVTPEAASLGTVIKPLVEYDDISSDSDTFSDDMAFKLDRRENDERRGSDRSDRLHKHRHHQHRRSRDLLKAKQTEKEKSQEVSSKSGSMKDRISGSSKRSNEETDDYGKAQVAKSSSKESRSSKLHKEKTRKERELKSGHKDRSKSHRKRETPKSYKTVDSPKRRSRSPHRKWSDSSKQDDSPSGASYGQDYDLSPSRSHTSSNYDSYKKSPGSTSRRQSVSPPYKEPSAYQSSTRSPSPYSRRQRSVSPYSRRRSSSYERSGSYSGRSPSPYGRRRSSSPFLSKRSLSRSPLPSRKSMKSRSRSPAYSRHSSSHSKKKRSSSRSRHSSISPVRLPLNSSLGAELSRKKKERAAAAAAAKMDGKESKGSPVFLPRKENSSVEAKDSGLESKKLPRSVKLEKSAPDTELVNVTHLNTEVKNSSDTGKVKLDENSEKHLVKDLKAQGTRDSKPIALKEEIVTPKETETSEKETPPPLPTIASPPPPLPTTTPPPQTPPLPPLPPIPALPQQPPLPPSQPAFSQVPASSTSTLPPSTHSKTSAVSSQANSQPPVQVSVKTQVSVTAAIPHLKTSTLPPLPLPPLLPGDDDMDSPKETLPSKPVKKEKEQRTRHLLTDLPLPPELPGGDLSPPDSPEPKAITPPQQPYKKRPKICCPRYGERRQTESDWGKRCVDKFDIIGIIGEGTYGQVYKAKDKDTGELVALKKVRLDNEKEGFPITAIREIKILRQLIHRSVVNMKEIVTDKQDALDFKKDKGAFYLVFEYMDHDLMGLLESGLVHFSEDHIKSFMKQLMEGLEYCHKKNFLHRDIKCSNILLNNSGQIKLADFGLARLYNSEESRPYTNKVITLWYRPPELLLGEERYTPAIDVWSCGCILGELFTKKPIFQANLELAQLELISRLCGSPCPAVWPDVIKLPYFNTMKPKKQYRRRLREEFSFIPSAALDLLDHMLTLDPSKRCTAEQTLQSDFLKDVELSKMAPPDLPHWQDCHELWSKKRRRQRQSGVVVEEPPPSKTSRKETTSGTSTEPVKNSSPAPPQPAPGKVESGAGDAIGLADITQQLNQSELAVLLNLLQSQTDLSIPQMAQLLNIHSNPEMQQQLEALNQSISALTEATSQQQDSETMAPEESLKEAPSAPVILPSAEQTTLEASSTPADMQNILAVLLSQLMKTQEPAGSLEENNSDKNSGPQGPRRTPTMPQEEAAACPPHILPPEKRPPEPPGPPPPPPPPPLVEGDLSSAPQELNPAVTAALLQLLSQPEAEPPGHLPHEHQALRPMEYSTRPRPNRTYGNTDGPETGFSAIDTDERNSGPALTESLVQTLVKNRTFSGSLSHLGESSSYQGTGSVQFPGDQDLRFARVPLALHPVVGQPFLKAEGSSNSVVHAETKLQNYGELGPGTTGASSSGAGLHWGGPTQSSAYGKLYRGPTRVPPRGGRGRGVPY
CDK12, sequence (O75909 whole entry partner): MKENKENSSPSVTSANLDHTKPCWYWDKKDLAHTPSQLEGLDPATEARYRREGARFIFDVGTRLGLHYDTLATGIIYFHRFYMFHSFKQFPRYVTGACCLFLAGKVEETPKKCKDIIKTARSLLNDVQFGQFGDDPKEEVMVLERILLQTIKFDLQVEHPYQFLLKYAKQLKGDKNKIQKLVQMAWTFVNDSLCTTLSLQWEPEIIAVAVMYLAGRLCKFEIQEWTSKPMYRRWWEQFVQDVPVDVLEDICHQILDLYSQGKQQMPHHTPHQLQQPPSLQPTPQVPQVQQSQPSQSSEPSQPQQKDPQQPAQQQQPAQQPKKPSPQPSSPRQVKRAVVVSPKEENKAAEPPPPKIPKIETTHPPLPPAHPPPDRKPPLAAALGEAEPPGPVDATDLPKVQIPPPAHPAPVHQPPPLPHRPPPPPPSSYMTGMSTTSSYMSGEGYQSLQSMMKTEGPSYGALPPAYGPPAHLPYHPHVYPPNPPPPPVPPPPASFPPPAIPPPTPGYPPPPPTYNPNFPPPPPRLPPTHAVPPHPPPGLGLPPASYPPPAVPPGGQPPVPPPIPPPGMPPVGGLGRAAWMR

Consider `N#CN1CC=C(c2ccc(CC(=O)Nc3cc(C4(O)COC4)c(Cl)cn3)cn2)CC1` [Compound 17, N-(5-chloro-4-(3-hydroxyoxetan-3-yl)pyridin-2-yl)-2-(1′-cyano-1′,2′,3′,6′-tetrahydro-[2,4′-bipyridin]-5-yl)acetamide], for which the IC50 is less than 0.01 µM and the inhibition at 10 µM turned out to be 92%.
For `N#CN1CC=C(c2ncc(CC(=O)Nc3ccc(Cl)cn3)cc2F)CC1` [Compound 18, N-(5-chloropyridin-2-yl)-2-(1′-cyano-3-fluoro-1′,2′,3′,6′-tetrahydro-[2,4′-bipyridin]-5-yl)acetamide], the IC50 lay in the range of 0.01 to 0.1 µM and the inhibition at 10 µM amounted to 87%.
On to `N#CN1CC=C(c2ccc(CC(=O)Nc3cc(OC4CCOCC4)c(Cl)cn3)cn2)CC1` [Compound 19, N-(5-chloro-4-((tetrahydro-2H-pyran-4-yl)oxy)pyridin-2-yl)-2-(1′-cyano-1′,2′,3′,6′-tetrahydro-[2,4′-bipyridin]-5-yl)acetamide], for which the concentration for half-maximal inhibition (IC50) was less than 0.01 µM and the inhibition at 10 µM turned out to be 91%.
Taken in the same sequence, the figures for `CCOc1cc(NC(=O)Cc2ccc(C3=CCN(C#N)CC3)nc2)ncc1Cl` [Compound 20, N-(5-chloro-4-ethoxypyridin-2-yl)-2-(1′-cyano-1′,2′,3′,6′-tetrahydro-[2,4′-bipyridin]-5-yl)acetamide] were less than 0.01 µM and 109%.
Consider `CC(C)Oc1cc(NC(=O)Cc2ccc(C3=CCN(C#N)CC3)nc2)ncc1Cl` [Compound 21, N-(5-chloro-4-isopropoxypyridin-2-yl)-2-(1′-cyano-1′,2′,3′,6′-tetrahydro-[2,4′-bipyridin]-5-yl)acetamide], for which the IC50 was less than 0.01 µM and the inhibition at 10 µM was 94%.
In the case of `COCCOc1cc(NC(=O)Cc2ccc(C3=CCN(C#N)CC3)nc2)ncc1Cl` [Compound 22, N-(5-chloro-4-(2-methoxyethoxy)pyridin-2-yl)-2-(1′-cyano-1′,2′,3′,6′-tetrahydro-[2,4′-bipyridin]-5-yl)acetamide], the IC50 was less than 0.01 µM and the inhibition at 10 µM worked out at 91%.
`CC(C)(O)c1cc(NC(=O)Cc2ccc(C3=CCN(C#N)CC3)nc2)ncc1Cl` [Compound 23, N-(5-chloro-4-(2-hydroxypropan-2-yl)pyridin-2-yl)-2-(1′-cyano-1′,2′,3′,6′-tetrahydro-[2,4′-bipyridin]-5-yl)acetamide]: the IC50 is less than 0.01 µM and the inhibition at 10 µM is 96%.
Consider `N#CN1CC=C(c2ccc(CC(=O)Nc3cc(O[C@@H]4CCOC4)c(Cl)cn3)cn2)CC1` [Compound 26, (R)-N-(5-chloro-4-((tetrahydrofuran-3-yl)oxy)pyridin-2-yl)-2-(1′-cyano-1′,2′,3′,6′-tetrahydro-[2,4′-bipyridin]-5-yl)acetamide], for which the IC50 is less than 0.01 µM and the inhibition at 10 µM stood at 99%.
Turning to `N#CN1CC=C(c2ccc(CC(=O)Nc3cc(O[C@H]4CCOC4)c(Cl)cn3)cn2)CC1` [Compound 27, (S)-N-(5-chloro-4-((tetrahydrofuran-3-yl)oxy)pyridin-2-yl)-2-(1′-cyano-1′,2′,3′,6′-tetrahydro-[2,4′-bipyridin]-5-yl)acetamide], the IC50 was less than 0.01 µM and the inhibition at 10 µM was found to be 93%.
As for `N#CN1CC=C(c2ccc(CC(=O)Nc3cc(OC4CCC4)c(Cl)cn3)cn2)CC1` [Compound 28, N-(5-chloro-4-cyclobutoxypyridin-2-yl)-2-(1′-cyano-1′,2′,3′,6′-tetrahydro-[2,4′-bipyridin]-5-yl)acetamide], the IC50 was less than 0.01 µM and the inhibition at 10 µM was 95%.
On to `CC(CN(C)C)Oc1cc(NC(=O)Cc2ccc(C3=CCN(C#N)CC3)nc2)ncc1Cl` (stereo not shown) [Compound 31, N-(5-chloro-4-((1-(dimethylamino)propan-2-yl)oxy)pyridin-2-yl)-2-(1′-cyano-1′,2′,3′,6′-tetrahydro-[2,4′-bipyridin]-5-yl)acetamide], for which the IC50 was less than 0.01 µM and the inhibition at 10 µM came out at 89%.
As for `CN1CCC[C@@H](Oc2cc(NC(=O)Cc3ccc(C4=CCN(C#N)CC4)nc3)ncc2Cl)C1` [Compound 32, (R)-N-(5-chloro-4-((1-methylpiperidin-3-yl)oxy)pyridin-2-yl)-2-(1′-cyano-1′,2′,3′,6′-tetrahydro-[2,4′-bipyridin]-5-yl)acetamide], the IC50 was less than 0.01 µM and the inhibition at 10 µM was 84%.
`CN1CCC[C@H](Oc2cc(NC(=O)Cc3ccc(C4=CCN(C#N)CC4)nc3)ncc2Cl)C1` [Compound 33, (S)-N-(5-chloro-4-((1-methylpiperidin-3-yl)oxy)pyridin-2-yl)-2-(1′-cyano-1′,2′,3′,6′-tetrahydro-[2,4′-bipyridin]-5-yl)acetamide]: the IC50 was less than 0.01 µM and the inhibition at 10 µM worked out at 88%.
As to `COc1cc(NC(=O)Cc2ccc(C3=CCCN(C#N)C3)nc2)ncc1Cl` [Compound 34, N-(5-chloro-4-methoxypyridin-2-yl)-2-(1′-cyano-1′,2′,5′,6′-tetrahydro-[2,3′-bipyridin]-5-yl)acetamide], the IC50 was less than 0.01 µM and the inhibition at 10 µM was found to be 91%.
The corresponding values for `COC[C@H](C)Oc1cc(NC(=O)Cc2ccc(C3=CCCN(C#N)C3)nc2)ncc1Cl` [Compound 35, (S)-N-(5-chloro-4-((1-methoxypropan-2-yl)oxy)pyridin-2-yl)-2-(1′-cyano-1′,2′,5′,6′-tetrahydro-[2,3′-bipyridin]-5-yl)acetamide] are less than 0.01 µM and 95%.
Take `COC[C@@H](C)Oc1cc(NC(=O)Cc2ccc(C3=CCCN(C#N)C3)nc2)ncc1Cl` [Compound 36, (R)-N-(5-chloro-4-((1-methoxypropan-2-yl)oxy)pyridin-2-yl)-2-(1′-cyano-1′,2′,5′,6′-tetrahydro-[2,3′-bipyridin]-5-yl)acetamide]: the IC50 is less than 0.01 µM and the inhibition at 10 µM was 95%.
The corresponding values for `CN1CCC(Oc2cc(NC(=O)Cc3ccc(C4=CCCN(C#N)C4)nc3)ncc2Cl)CC1` [Compound 37, N-(5-chloro-4-((1-methylpiperidin-4-yl)oxy)pyridin-2-yl)-2-(1′-cyano-1′,2′,5′,6′-tetrahydro-[2,3′-bipyridin]-5-yl)acetamide] are less than 0.01 µM and 94%.
As to `CN1CC[C@@H](Oc2cc(NC(=O)Cc3ccc(C4=CCCN(C#N)C4)nc3)ncc2Cl)C1` [Compound 38, (R)-N-(5-chloro-4-((1-methylpyrrolidin-3-yl)oxy)pyridin-2-yl)-2-(1′-cyano-1′,2′,5′,6′-tetrahydro-[2,3′-bipyridin]-5-yl)acetamide], the concentration for half-maximal inhibition (IC50) was less than 0.01 µM and the inhibition at 10 µM was found to be 88%.
Consider `CN1CC[C@H](Oc2cc(NC(=O)Cc3ccc(C4=CCCN(C#N)C4)nc3)ncc2Cl)C1` [Compound 39, (S)-N-(5-chloro-4-((1-methylpyrrolidin-3-yl)oxy)pyridin-2-yl)-2-(1′-cyano-1′,2′,5′,6′-tetrahydro-[2,3′-bipyridin]-5-yl)acetamide], for which the IC50 lay in the range of 0.01 to 0.1 µM and the inhibition at 10 µM was 98%.
Taken in the same sequence, the figures for `N#CN1CCC=C(c2ccc(CC(=O)Nc3cc(O[C@@H]4CCOC4)c(Cl)cn3)cn2)C1` [Compound 40, (R)-N-(5-chloro-4-((tetrahydrofuran-3-yl)oxy)pyridin-2-yl)-2-(1′-cyano-1′,2′,5′,6′-tetrahydro-[2,3′-bipyridin]-5-yl)acetamide] were less than 0.01 µM and 91%.

The values above are taken from US20260000692A1, “Substituted N-(Pyridin-2-yl)Acetamide Derivatives as CDK12/13 Inhibitors” (Aurigene Oncology Limited, priority 2022, published 2026).
